Reference: patent US11542273B2, “Amide compound having bet proteolysis-inducing action and medicinal application thereof” (MITSUBISHI TANABE PHARMA CORPORATION, priority 2018, dated 2023)

Legend:
[1] = target: BRD4 protein (Homo sapiens (Human), UniProt O60885); experiment: BRD4 protein degradation inducing action in cancer cells (immunofluorescence, Operetta); type: cell-based; conditions: LNCaP cells, 6 hr treatment, fluorescence intensity
Outline: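 LNCaP prostate cancer cells in 10% FBS/RPMI1640 were exposed to compound for 6 hr at 37° C, then fixed, permeabilized and immunostained for BRD4 with Alexa Fluor 488 or 546 secondary antibodies plus Hoechst nuclear stain. Fluorescence was read by high-content imaging; DC50 is the concentration giving 50% of untreated signal, interpolated linearly between bracketing points.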

[2] = test system: human prostate cancer LNCaP cells; experiment: Cytotoxic action on cancer cells (WST-8, 96 hr); type: cell-based; conditions: Homo sapiens, LNCaP, 96 h, read-out: LNCaP cytotoxic activity: IC50
Outline: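 Seed cells in 10% FBS/RPMI1640 and culture overnight (37° C, 5% CO2). Add test compound (DMSO stock diluted in medium). Culture further, then read viable cell number by WST-8. Derive IC50 from the straight line between survival points enclosing 50%.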

| DC50 [1] [nM] | Structure (SMILES) | IC50 [2] [nM] |
| --- | --- | --- |
| 0.93 | COC(=O)C[C@@H]1N=C(c2ccc(-c3ccc(C(=O)N[C@H](C(=O)N4C[C@H](O)C[C@H]4C(=O)N[C@@H](C)c4ccc(-c5scnc5C)cc4)C(C)(C)C)c(C)c3)cc2)c2c(sc(C)c2C)-n2c(C)nnc21 [Example 183, methyl {(6S)-4-[4′-({(2S)-1-[(2S,4R)-4-hydroxy-2-({(1S)-1-[4-(4-methyl-1,3-thiazol-5-yl)phenyl]ethyl}carbamoyl)pyrrolidin-1-yl]-3,3-dimethyl-1-oxobutan-2-yl}carbamoyl)-3′-methyl[1,1′-biphenyl]-4-yl]-2,3,9-trimethyl-6H-thieno[3,2-f][1,2,4]triazolo[4,3-a][1,4]diazepin-6-yl}acetate] | 1.5 |
| 0.21 | COC(=O)C[C@@H]1N=C(c2ccc(-c3ccc(OCC(=O)N[C@H](C(=O)N4C[C@H](O)C[C@H]4C(=O)N[C@@H](C)c4ccc(-c5scnc5C)cc4)C(C)(C)C)c(C(F)(F)F)c3)cc2)c2c(sc(C)c2C)-n2c(C)nnc21 [Example Compound 100, methyl [(6S)-4-{4′-[2-({(2S)-1-[(2S,4R)-4-hydroxy-2-({(1S)-1-[4-(4-methyl-1,3-thiazol-5-yl)phenyl]ethyl}carbamoyl)pyrrolidin-1-yl]-3,3-dimethyl-1-oxobutan-2-yl}amino)-2-oxoethoxy]-3′-(trifluoromethyl)[1,1′-biphenyl]-4-yl}-2,3,9-trimethyl-6H-thieno[3,2-f] [1,2,4]triazolo[4,3-a][1,4]diazepin-6-yl]acetate] | 0.67 |
| 0.5 | COC(=O)C[C@@H]1N=C(c2ccc(-c3cc(F)cc(C(=O)N[C@H](C(=O)N4C[C@H](O)C[C@H]4C(=O)N[C@@H](C)c4ccc(-c5scnc5C)cc4)C(C)(C)C)c3F)cc2)c2c(sc(C)c2C)-n2c(C)nnc21 [Example 175, methyl {(6S)-4-[2′,5′-difluoro-3′-({(25)-1-[(2S,4R)-4-hydroxy-2-({(1S)-1-[4-(4-methyl-1,3-thiazol-5-yl)phenyl]ethyl}carbamoyl)pyrrolidin-1-yl]-3,3-dimethyl-1-oxobutan-2-yl}carbamoyl)[1,1′-biphenyl]-4-yl]-2,3,9-trimethyl-6H-thieno[3,2-f][1,2,4]triazolo[4,3-a][1,4]diazepin-6-yl}acetate] | 0.3 |
| 0.075 | COC(=O)C[C@@H]1N=C(c2ccc(N3CCc4ccc(C(=O)N[C@H](C(=O)N5C[C@H](O)C[C@H]5C(=O)N[C@@H](C)c5ccc(-c6scnc6C)cc5)C(C)(C)C)cc4C3)cc2)c2c(sc(C)c2C)-n2c(C)nnc21 [Example 161, methyl [(6S)-4-{4-[7-({(2S)-1-[(2S,4R)-4-hydroxy-2-({(1S)-1-[4-(4-methyl-1,3-thiazol-5-yl)phenyl]ethyl}carbamoyl)pyrrolidin-1-yl]-3,3-dimethyl-1-oxobutan-2-yl}carbamoyl)-3,4-dihydroisoquinolin-2(1H)-yl]phenyl}-2,3,9-trimethyl-6H-thieno[3,2-f][1,2,4]triazolo[4,3-a][1,4]diazepin-6-yl]acetate] | 0.22 |
